Source: PMC10544810 (Food & Function, 2023)

Experiments:
[1] = LC-MS; format: in vivo, human; settings: for plasma concentration (mean ± SD): fasted baseline plasma, 90 volunteers; for concentrations detected in plasma: individual volunteers, ESI Fig. S4
[2] = LC-MS; format: in vivo, human; settings: given as x : 1; plasma versus CSF concentrations
[3] = cited from earlier work

Compound	plasma concentration (mean ± SD) [1]	plasma : CSF ratio [2]	also measured
Cn1c(=O)[nH]c(=O)c2[nH]cnc21 [3-Methylxanthine]	5.3 ± 3.8 µM		
CCOC(=O)c1cc(O)c(O)c(O)c1 [3,4,5-trihydroxybenzene ethyl ester]	0.0053 ± 0.0041 µM		
Oc1cc(O)c2c(c1)O[C@H](c1ccc(O)c(O)c1)[C@H](O)C2 [(−)-Epicatechin]		24	concentrations detected in plasma [1]: below 1 μM
O=c1ccc2ccc(O)c(O)c2o1 [7,8-Dihydroxycoumarin]		5	concentrations detected in plasma [1]: below 1 μM
O=C(O)CNC(=O)c1ccccc1 [hippuric acid]	387 ± 243 µM		
Cn1c(=O)c2[nH]cnc2n(C)c1=O [1,3-Dimethylxanthine, reference compound]		620	
Cn1c(=O)c2c(ncn2C)n(C)c1=O [1,3,7-Trimethylxanthine, reference compound]	179 ± 118 µM		
O=C(O)c1cccc(O)c1 [3-Hydroxybenzoic acid]			CSF concentration reported by a previous study [3]: 58.5 nM
